Key:
Assay in all cases: Serine Protease Inhibition Assay
Coagulation factor VII = target: T1, Coagulation factor VII (Homo sapiens, UniProt P08709); conditions: pH 7.8; 22 °C
T1 sequence (P08709 whole entry): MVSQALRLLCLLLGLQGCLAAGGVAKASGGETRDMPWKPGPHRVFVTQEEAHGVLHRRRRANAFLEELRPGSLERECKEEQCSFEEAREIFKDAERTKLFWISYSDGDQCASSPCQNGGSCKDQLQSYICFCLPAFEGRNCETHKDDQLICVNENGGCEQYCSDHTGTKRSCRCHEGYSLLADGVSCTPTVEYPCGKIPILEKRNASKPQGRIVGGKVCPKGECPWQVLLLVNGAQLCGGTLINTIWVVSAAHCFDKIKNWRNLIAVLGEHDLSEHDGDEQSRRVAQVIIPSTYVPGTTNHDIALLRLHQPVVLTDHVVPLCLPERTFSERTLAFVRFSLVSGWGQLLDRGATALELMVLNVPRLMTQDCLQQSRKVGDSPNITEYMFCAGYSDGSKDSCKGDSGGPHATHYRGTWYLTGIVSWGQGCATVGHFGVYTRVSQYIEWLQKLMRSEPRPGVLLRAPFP
Procedure: (§1) The enzyme reactions were initiated by the addition of substrate, and the color developed from the release of p-nitroanilide from each chromogenic substrate was monitored continuously for 5 min at 405 nm on a microtiter plate reader. […] The apparent Ki values were then calculated according to the Cheng-Prusoff equation: Ki = IC50/1 + [S]/Km.

Coagulation factor X = Coagulation factor X (Homo sapiens, UniProt P00742)
Procedure: as §1

Prothrombin = Prothrombin (Homo sapiens, UniProt P00734)
Procedure: as §1

Serine protease 1 = target: T2, Serine protease 1 (Bos taurus, UniProt P00760)
T2 sequence (P00760 whole entry): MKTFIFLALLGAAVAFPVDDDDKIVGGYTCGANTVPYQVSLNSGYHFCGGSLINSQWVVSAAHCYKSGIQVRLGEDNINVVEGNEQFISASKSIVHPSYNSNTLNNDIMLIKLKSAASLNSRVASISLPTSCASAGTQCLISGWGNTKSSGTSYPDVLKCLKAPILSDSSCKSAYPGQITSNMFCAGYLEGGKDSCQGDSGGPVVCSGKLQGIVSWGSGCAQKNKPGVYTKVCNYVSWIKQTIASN
Procedure: as §1

Chain of Coagulation factor X (P00742 41-179 limits assumed): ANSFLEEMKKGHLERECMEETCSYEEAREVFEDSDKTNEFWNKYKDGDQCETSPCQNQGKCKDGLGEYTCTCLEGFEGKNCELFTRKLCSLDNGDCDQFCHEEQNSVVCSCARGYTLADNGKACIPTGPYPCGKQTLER
Chain of Coagulation factor X (P00742 235-488 limits assumed): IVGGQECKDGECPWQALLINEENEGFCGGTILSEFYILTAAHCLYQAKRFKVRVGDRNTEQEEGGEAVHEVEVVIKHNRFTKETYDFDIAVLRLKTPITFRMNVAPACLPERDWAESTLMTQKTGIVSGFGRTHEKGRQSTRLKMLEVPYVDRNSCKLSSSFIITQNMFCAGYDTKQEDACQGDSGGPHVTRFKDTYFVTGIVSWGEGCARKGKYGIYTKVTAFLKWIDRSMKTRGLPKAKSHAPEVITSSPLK

Row | Ki (Coagulation factor VII) [nM] | Ki (Coagulation factor X) [µM] | Ki (Prothrombin) [µM] | Ki (Serine protease 1) [nM] | Structure (SMILES)
1 | 7 | 19 | 6.4 | 80 | COc1cc(C(Nc2ccc(C(=N)N)cc2)C(=O)N[C@H](C(=O)O)c2ccccc2)c(C(=O)Cc2ccccc2)cc1OCc1ccccc1 (stereo partly drawn) [(2S)-2-{2-[4-(benzyloxy)-5-methoxy-2-(2-phenylacetyl)phenyl]-2-[(4-carbamimidoylphenyl)amino]acetamido}-2-phenylacetic acid]
2 | – | 12.4 | 0.54 | 50 | COc1cc(C(Nc2ccc(C(=N)N)cc2)C(=O)N[C@H](C(=O)O)c2ccccc2)c(S(=O)(=O)c2ccccc2)cc1OCc1ccccc1 (some centres not stated) [phenylglycine amide compound 10]

From BindingDB's records for doi:10.1016/j.bmcl.2004.10.092 (F. Hoffmann-La Roche, 2005)
